The text below walks through data of ChEMBL document CHEMBL1147004, “Alkynyl pyrimidines as dual EGFR/ErbB2 kinase inhibitors” (Bioorg Med Chem Lett, 2006).

Each structure is given as a SMILES string.

Series [1] concerns the target Receptor tyrosine-protein kinase erbB-2 (Homo sapiens, UniProt P04626). Kind of series: Inhibition of ErbB2.
Series [2] concerns the target Epidermal growth factor receptor (Homo sapiens, UniProt P00533).
For series [3], the system named is HN5. Kind of series: Antiproliferative activity against human HN5 cell line.
Series [4] has as its system BT-474. Kind of series: Antiproliferative activity against human BT474 cell line.
The subject of series [5] is HFF. The experiment in a line: Antiproliferative activity against human HFF cell line.
The nature of series [6]: Permeability in PAMPA. To be noted: read-out: permeability. The class given is ADME.

Epidermal growth factor receptor, sequence (P00533 whole entry): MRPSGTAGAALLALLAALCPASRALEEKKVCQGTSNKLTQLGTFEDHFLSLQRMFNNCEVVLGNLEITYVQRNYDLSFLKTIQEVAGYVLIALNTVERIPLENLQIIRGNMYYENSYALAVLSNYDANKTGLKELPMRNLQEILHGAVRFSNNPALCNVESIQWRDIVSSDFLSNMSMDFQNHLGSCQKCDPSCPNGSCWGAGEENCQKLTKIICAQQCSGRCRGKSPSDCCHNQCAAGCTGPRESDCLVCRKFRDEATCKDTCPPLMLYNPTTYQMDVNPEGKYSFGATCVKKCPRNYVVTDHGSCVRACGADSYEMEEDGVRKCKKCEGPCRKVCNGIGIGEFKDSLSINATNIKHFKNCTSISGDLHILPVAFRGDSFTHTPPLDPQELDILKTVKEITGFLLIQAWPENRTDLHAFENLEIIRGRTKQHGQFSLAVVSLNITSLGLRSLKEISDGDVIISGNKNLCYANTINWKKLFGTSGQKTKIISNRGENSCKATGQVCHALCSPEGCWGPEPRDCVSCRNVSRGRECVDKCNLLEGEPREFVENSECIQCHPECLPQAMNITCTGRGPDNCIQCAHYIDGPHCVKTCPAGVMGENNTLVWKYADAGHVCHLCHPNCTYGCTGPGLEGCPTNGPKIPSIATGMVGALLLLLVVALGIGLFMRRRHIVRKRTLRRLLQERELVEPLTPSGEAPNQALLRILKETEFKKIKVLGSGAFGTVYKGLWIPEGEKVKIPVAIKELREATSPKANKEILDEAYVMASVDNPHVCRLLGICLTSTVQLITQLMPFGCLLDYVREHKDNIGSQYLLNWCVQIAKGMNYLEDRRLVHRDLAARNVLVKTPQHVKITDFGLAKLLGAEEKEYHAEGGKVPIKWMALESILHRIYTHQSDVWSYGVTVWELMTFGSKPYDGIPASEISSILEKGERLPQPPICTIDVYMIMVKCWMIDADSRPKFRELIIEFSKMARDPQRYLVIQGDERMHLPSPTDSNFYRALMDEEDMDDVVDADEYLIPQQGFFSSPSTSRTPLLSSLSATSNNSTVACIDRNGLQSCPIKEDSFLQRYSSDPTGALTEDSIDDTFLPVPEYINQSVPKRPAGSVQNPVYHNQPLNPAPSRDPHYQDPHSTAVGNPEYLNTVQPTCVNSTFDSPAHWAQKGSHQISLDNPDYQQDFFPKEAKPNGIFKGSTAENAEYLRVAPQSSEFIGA
Receptor tyrosine-protein kinase erbB-2, sequence (P04626 whole entry): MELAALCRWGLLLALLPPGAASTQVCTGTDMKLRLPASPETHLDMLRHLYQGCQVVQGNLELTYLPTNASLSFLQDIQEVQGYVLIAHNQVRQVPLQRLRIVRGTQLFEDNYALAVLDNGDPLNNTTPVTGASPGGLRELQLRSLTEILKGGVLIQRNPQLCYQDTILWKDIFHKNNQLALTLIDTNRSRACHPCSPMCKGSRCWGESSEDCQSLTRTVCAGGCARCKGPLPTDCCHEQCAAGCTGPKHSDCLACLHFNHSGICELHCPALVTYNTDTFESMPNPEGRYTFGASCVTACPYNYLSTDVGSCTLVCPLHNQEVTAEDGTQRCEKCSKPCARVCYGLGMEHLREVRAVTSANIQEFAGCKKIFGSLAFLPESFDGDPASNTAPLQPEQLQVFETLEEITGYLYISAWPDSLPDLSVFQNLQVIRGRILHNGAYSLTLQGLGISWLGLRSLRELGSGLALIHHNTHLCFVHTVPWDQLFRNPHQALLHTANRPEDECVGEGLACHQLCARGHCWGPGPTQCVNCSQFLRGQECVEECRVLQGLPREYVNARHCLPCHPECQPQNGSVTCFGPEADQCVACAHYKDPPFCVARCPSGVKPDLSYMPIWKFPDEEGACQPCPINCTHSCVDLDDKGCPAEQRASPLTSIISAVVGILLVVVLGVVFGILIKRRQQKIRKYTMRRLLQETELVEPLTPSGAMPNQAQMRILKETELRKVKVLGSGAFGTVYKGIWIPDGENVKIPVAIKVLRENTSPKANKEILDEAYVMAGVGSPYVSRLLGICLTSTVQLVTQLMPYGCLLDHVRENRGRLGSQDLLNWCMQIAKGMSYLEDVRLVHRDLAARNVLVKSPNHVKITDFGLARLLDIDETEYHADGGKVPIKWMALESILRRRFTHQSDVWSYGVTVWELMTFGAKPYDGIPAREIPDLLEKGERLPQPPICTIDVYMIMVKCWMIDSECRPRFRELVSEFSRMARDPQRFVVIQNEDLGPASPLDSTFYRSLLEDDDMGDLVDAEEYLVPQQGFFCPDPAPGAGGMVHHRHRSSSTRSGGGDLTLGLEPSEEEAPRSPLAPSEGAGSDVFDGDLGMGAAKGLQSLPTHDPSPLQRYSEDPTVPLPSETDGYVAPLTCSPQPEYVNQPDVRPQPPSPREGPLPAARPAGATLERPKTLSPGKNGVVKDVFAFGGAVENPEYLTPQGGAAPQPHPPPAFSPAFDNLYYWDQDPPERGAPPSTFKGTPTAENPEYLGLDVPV

With `Nc1ccccc1C#Cc1cncnc1Nc1ccc(OCc2cccc(F)c2)c(Cl)c1`, the IC50 in series [1] was 0.091 µM; in series [2] it was 0.063 µM.
Consider `CNC(=O)c1cccc(C#Cc2cncnc2Nc2ccc(OCc3cccc(F)c3)c(Cl)c2)c1` [GW772405X], for which the IC50 in series [1] came to 0.032 µM; in series [2] it was 0.079 µM.
Regarding `Fc1cccc(COc2ccc(Nc3ncncc3C#Cc3ncccn3)cc2Cl)c1`, the figures for the IC50 in series [1] and in series [2] were 0.06 µM and 0.077 µM, respectively.
With `CC(=O)Nc1cccc(C#Cc2cncnc2Nc2ccc(OCc3cccc(F)c3)c(Cl)c2)n1` [GW794726X], the IC50 came out at 0.059 µM in series [1] and 0.091 µM in series [2].
As for `CC(=O)Nc1cccc(C#Cc2cncnc2Nc2ccc(OCc3cccc(F)c3)c(Cl)c2)c1` [GW703087X], the IC50 in series [1] was 0.013 µM; in series [3], 13.7 µM; in series [4], 21.6 µM; in series [5] it was more than 30 µM; in series [2], 0.012 µM. Further, in series [6], the Papp is less than 0.3 ×10⁻⁶ cm/s.
As for `OCc1ccc(C#Cc2cncnc2Nc2ccc(OCc3cccc(F)c3)c(Cl)c2)o1`, the IC50 was determined as 0.047 µM in series [1]; 0.93 µM in series [3]; 2.04 µM in series [4]; 15.8 µM in series [5]; 0.033 µM in series [2].
Consider `Fc1cccc(COc2ccc(Nc3ncncc3C#Cc3cc[nH]n3)cc2Cl)c1`, for which the half-inhibitory concentration (IC50) is 0.066 µM in series [1] and 0.042 µM in series [2].
With `Fc1cccc(COc2ccc(Nc3ncncc3C#Cc3ccccn3)cc2Cl)c1`, the figures for the IC50 in series [1] and in series [2] were 0.055 µM and 0.017 µM, respectively.
Take `COC(=O)CCCC(=O)Nc1cccc(C#Cc2cncnc2Nc2ccc(OCc3cccc(F)c3)c(Cl)c2)c1`: the IC50 in series [1] came to 0.029 µM; in series [3] it was 3.47 µM; in series [4], 4.24 µM; in series [5] it was 22.4 µM; in series [2], 0.031 µM.
Take `Fc1cccc(COc2ccc(Nc3ncncc3C#Cc3cccnc3)cc2Cl)c1`: the IC50 in series [1] amounted to 0.14 µM; in series [2] it was 0.074 µM.
As for `Fc1cccc(COc2ccc(Nc3ncncc3C#Cc3ccccc3)cc2Cl)c1` [GW651576X], the IC50 is 0.78 µM in series [1] and 0.079 µM in series [2].
For the molecule `OCc1cccc(C#Cc2cncnc2Nc2ccc(OCc3cccc(F)c3)c(Cl)c2)n1`, the IC50 is 0.013 µM in series [1], 5.79 µM in series [4] and more than 30 µM in series [5].
As for `C#Cc1cncnc1Nc1ccc(OCc2cccc(F)c2)c(Cl)c1`, the IC50 was found to be 3.8 µM in series [1] and 0.085 µM in series [2].
With `NCc1cccc(C#Cc2cncnc2Nc2ccc(OCc3cccc(F)c3)c(Cl)c2)n1`, the IC50 in series [1] was 0.038 µM; in series [2], 0.021 µM.
Consider `Nc1cccc(C#Cc2cncnc2Nc2ccc(OCc3cccc(F)c3)c(Cl)c2)c1`, for which the IC50 came out at 0.044 µM in series [1] and 0.042 µM in series [2].
Consider `CC(=O)Nc1ccc(C#Cc2cncnc2Nc2ccc(OCc3cccc(F)c3)c(Cl)c2)cc1`, for which the IC50 in series [1] worked out at 1.82 µM; in series [2] it was 25.1 µM.
The like results for `Fc1cccc(COc2ccc(Nc3ccncn3)cc2Cl)c1` were, in that order, 21 µM and 0.32 µM.
In the case of `Nc1ccc(C#Cc2cncnc2Nc2ccc(OCc3cccc(F)c3)c(Cl)c2)cc1` [GW659893X], the IC50 stood at 0.036 µM in series [1] and 0.03 µM in series [2].
On the same counts, the results for `CC(=O)NCc1cccc(C#Cc2cncnc2Nc2ccc(OCc3cccc(F)c3)c(Cl)c2)c1` [GW807930X] are 0.052 µM and 0.06 µM.
Regarding `CS(=O)(=O)CCC(=O)Nc1cccc(C#Cc2cncnc2Nc2ccc(OCc3cccc(F)c3)c(Cl)c2)c1`, the IC50 was determined as 0.032 µM in series [1] and 0.05 µM in series [2].
As for `CS(=O)(=O)Nc1cccc(C#Cc2cncnc2Nc2ccc(OCc3cccc(F)c3)c(Cl)c2)c1`, the IC50 came to 0.045 µM in series [1] and 0.11 µM in series [2].
Regarding `CNC(=O)NCc1cccc(C#Cc2cncnc2Nc2ccc(OCc3cccc(F)c3)c(Cl)c2)n1`, the values for the half-maximal inhibitory concentration (IC50) in series [1] and in series [2] were 0.069 µM and 0.023 µM, respectively.
Molecule `Nc1nccc(C#Cc2cncnc2Nc2ccc(OCc3cccc(F)c3)c(Cl)c2)n1` [GW799251X] returned an IC50 in series [1] of 0.012 µM.
As to `OCc1nc(C#Cc2cncnc2Nc2ccc(OCc3cccc(F)c3)c(Cl)c2)cs1`, the half-maximal inhibitory concentration (IC50) in series [1] amounted to 0.16 µM; in series [2], 0.076 µM.
With `CS(=O)(=O)CCNC(=O)NCc1cccc(C#Cc2cncnc2Nc2ccc(OCc3cccc(F)c3)c(Cl)c2)n1`, the IC50 was 0.009 µM in series [1]; 0.77 µM in series [3]; 0.84 µM in series [4]; more than 30 µM in series [5]; 0.015 µM in series [2].

A word on the IC50: it is the concentration needed to halve the response being measured. A higher IC50 goes with weaker potency.
